These results are taken from PubChem BioAssay (NCI).

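These data come from cells grown in 96-well plates and exposed to compound for 48 hours at five concentrations. TGI: concentration producing complete growth inhibition.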 Where only a bound is given, the exact number is not on record here.

The subject of the first assay is KM12 colon. The experiment in a line: NCI anticancer screen, dose series, 48 h.
For `CC12CC(c3ccccc3O1)C(C(=O)Nc1ccc(F)cc1)C(=O)N2` (stereo unspecified), the TGI was above 100 µM.

In the case of `O=c1c2c3ccccc3[nH]c2c2cccc3c2n1CCC3`, the TGI is above 100 µM.

In turn, `c1ccc([P+](CCNCCNCC[P+](c2ccccc2)(c2ccccc2)c2ccccc2)(c2ccccc2)c2ccccc2)cc1` came in with a TGI above 100 µM.

Take `c1ccc(C[P+]2(c3ccccc3)c3ccccc3-c3ccccc32)cc1`: the TGI is above 100 µM.

Take `COc1ccc2nc(-c3ccc(OCc4ccccc4)cc3)ccc2c1`: the TGI is above 100 µM.

The compound `CCOc1ccc(N/C(=C(/C(Cl)=C(/Cl)NCCN)[N+](=O)[O-])n2nnc3ccccc32)cc1` displayed a TGI above 100 µM.

`COC1(C)CC2N(C(=O)c3ccccc3)N=C(c3ccccc3)CC2(C)O1` (stereo unspecified) yielded a TGI above 100 µM.

In turn, `O=C1CC(C(O)CO)CC(=O)N1` (stereo unspecified) gave a TGI above 100 µM.

With `O=C(Cc1nc2ccc(C(=O)c3ccccc3)cc2[nH]c1=O)C(=O)Nc1ccc(Br)cc1`, the TGI was above 100 µM.

Compound `Cc1ccccc1C1OC1C(=O)c1ccccc1N` (stereo unspecified) registered a TGI above 100 µM.

The compound `Cc1cc(-c2nc3ccccc3s2)ccc1NS(=O)(=O)O` gave a TGI above 55.4 µM.

Turning to `COc1cc(COC(=O)N[C@H](C(=O)O)C(C)(C)C)c([N+](=O)[O-])cc1OC`, the TGI is above 100 µM.

In turn, `Cc1c(/C=N\NC(=S)N2CCN(C(=S)N/N=C\c3c(C)n(C)n(-c4ccccc4)c3=O)CC2)c(=O)n(-c2ccccc2)n1C` yielded a TGI above 100 µM.

Compound `CCN(CC)CCn1c2cc3c(cc2c(=O)c2cccnc21)OCCO3` registered a TGI above 10 µM.

The compound `O=C(NS(=O)(=O)Nc1ccc(Cl)cc1)OCc1ccc(Cl)cc1Cl` had a TGI of 57.2 µM.

For a further assay, the system named is TK-10 renal. Kind of assay: NCI anticancer screen, dose series, 48 h.
The compound `Nc1nc2ncc(SCc3ccc(C(=O)NC(CCC(=O)O)C(=O)O)cc3)cc2c(=O)[nH]1` (stereo unspecified) returned a TGI above 100 µM.

The compound `COc1ccc2c(c1)c1c(n2CCN2CCOCC2)-c2ccccc2CC1` had a TGI above 100 µM.

The compound `CCOC(=O)c1cc(C2(O)CCN(Cc3ccccc3)C2=O)c(-c2cc(C)no2)[nH]1` (stereo unspecified) gave a TGI above 100 µM.

Compound `Cc1cn(C2C=CC(COP(=O)(OCC3=CC(=O)c4ccccc4C3=O)N(C)CCCCCl)O2)c(=O)[nH]c1=O` (stereo unspecified) displayed a TGI of 36.5 µM.

As to `OCC1CCCC(n2cnc3c(=S)nc[nH]c32)O1` (stereo unspecified), the TGI was above 100 µM.

With `CC1(C)CC2(C)CC1CC2O` (stereo unspecified), the TGI is above 100 µM.

For `COc1ccc(/C(=C/n2ccnc2)C(=O)c2ccc(OC)c(OC)c2)cc1`, the TGI is above 100 µM.

Take `O=C1CC2C=CC(O)C(C1)C2` (stereo unspecified): the TGI is above 100 µM.

Take `COC(=O)C1(Cc2ccccc2)Cc2cc3c(cc2C1=O)CCC3` (stereo unspecified): the TGI was above 100 µM.

In turn, `CC(C)C(Sc1nc(-c2ccccc2)c(-c2ccccc2)[nH]1)C(=O)NNC(=S)Nc1ccccc1` (stereo unspecified) had a TGI above 100 µM.

Turning to `COC(=O)C1=C(C(=O)OC)C2OC1C1C2C2(C)C(C)=C(C)C1(C)S2=O` (stereo unspecified), the TGI turned out to be 29.8 µM.

In turn, `O=c1c2c3ccccc3[nH]c2c2cccc3c2n1CCC3` registered a TGI above 100 µM.

For the compound `c1ccc([P+](CCNCCNCC[P+](c2ccccc2)(c2ccccc2)c2ccccc2)(c2ccccc2)c2ccccc2)cc1`, the TGI was above 100 µM.

The compound `c1ccc(C[P+]2(c3ccccc3)c3ccccc3-c3ccccc32)cc1` had a TGI above 100 µM.

`COc1ccc2nc(-c3ccc(OCc4ccccc4)cc3)ccc2c1` registered a TGI above 100 µM.

The compound `O=C1CC(C(O)CO)CC(=O)N1` (stereo unspecified) yielded a TGI above 100 µM.

Take `O=C(Cc1nc2ccc(C(=O)c3ccccc3)cc2[nH]c1=O)C(=O)Nc1ccc(Br)cc1`: the TGI is above 100 µM.

Compound `Cc1ccccc1C1OC1C(=O)c1ccccc1N` (stereo unspecified) returned a TGI above 100 µM.

Consider `Cc1cc(-c2nc3ccccc3s2)ccc1NS(=O)(=O)O`, for which the TGI was above 100 µM.

For `COc1cc(COC(=O)N[C@H](C(=O)O)C(C)(C)C)c([N+](=O)[O-])cc1OC`, the TGI is above 100 µM.

With `Cc1c(/C=N\NC(=S)N2CCN(C(=S)N/N=C\c3c(C)n(C)n(-c4ccccc4)c3=O)CC2)c(=O)n(-c2ccccc2)n1C`, the TGI was 33.9 µM.

`CCN(CC)CCn1c2cc3c(cc2c(=O)c2cccnc21)OCCO3` came in with a TGI above 10 µM.

As for `O=C(NS(=O)(=O)Nc1ccc(Cl)cc1)OCc1ccc(Cl)cc1Cl`, the TGI stood at 41.9 µM.

Another assay deals with HCT-116 colon. Kind of assay: NCI anticancer screen, dose series, 48 h.
Compound `Nc1nc2ncc(SCc3ccc(C(=O)NC(CCC(=O)O)C(=O)O)cc3)cc2c(=O)[nH]1` (stereo unspecified) showed a TGI above 100 µM.

Compound `COc1ccc2c(c1)c1c(n2CCN2CCOCC2)-c2ccccc2CC1` returned a TGI above 100 µM.

Regarding `CCOC(=O)c1cc(C2(O)CCN(Cc3ccccc3)C2=O)c(-c2cc(C)no2)[nH]1` (stereo unspecified), the TGI is above 100 µM.

Consider `Cc1cn(C2C=CC(COP(=O)(OCC3=CC(=O)c4ccccc4C3=O)N(C)CCCCCl)O2)c(=O)[nH]c1=O` (stereo unspecified), for which the TGI came out at 26.9 µM.

Consider `OCC1CCCC(n2cnc3c(=S)nc[nH]c32)O1` (stereo unspecified), for which the TGI was above 100 µM.

As to `CC1(C)CC2(C)CC1CC2O` (stereo unspecified), the TGI was above 100 µM.

On to `COc1ccc(/C(=C/n2ccnc2)C(=O)c2ccc(OC)c(OC)c2)cc1`, for which the TGI was above 100 µM.

Consider `Clc1cc(N/N=C(/c2ccccc2)c2ncccn2)ncn1`, for which the TGI stood at 28.5 µM.

Consider `O=C1CC2C=CC(O)C(C1)C2` (stereo unspecified), for which the TGI was above 100 µM.

As for `COC(=O)C1(Cc2ccccc2)Cc2cc3c(cc2C1=O)CCC3` (stereo unspecified), the TGI is above 100 µM.

In turn, `CC(C)C(Sc1nc(-c2ccccc2)c(-c2ccccc2)[nH]1)C(=O)NNC(=S)Nc1ccccc1` (stereo unspecified) gave a TGI of 42.2 µM.

The compound `COC(=O)C1=C(C(=O)OC)C2OC1C1C2C2(C)C(C)=C(C)C1(C)S2=O` (stereo unspecified) had a TGI of 27 µM.

Take `CCOC(=O)CCC(NC(=O)c1ccc(OCc2nc3cc(C(F)(F)F)ccc3nc2-c2ccccc2)cc1)C(=O)OCC` (stereo unspecified): the TGI is above 100 µM.

The compound `CC12CC(c3ccccc3O1)C(C(=O)Nc1ccc(F)cc1)C(=O)N2` (stereo unspecified) gave a TGI above 100 µM.

`O=c1c2c3ccccc3[nH]c2c2cccc3c2n1CCC3` returned a TGI above 100 µM.

Compound `c1ccc([P+](CCNCCNCC[P+](c2ccccc2)(c2ccccc2)c2ccccc2)(c2ccccc2)c2ccccc2)cc1` yielded a TGI above 100 µM.

In the case of `c1ccc(C[P+]2(c3ccccc3)c3ccccc3-c3ccccc32)cc1`, the TGI is above 100 µM.

For `COc1ccc2nc(-c3ccc(OCc4ccccc4)cc3)ccc2c1`, the TGI was above 100 µM.

As to `CCOc1ccc(N/C(=C(/C(Cl)=C(/Cl)NCCN)[N+](=O)[O-])n2nnc3ccccc32)cc1`, the TGI was 74.6 µM.

Turning to `COC1(C)CC2N(C(=O)c3ccccc3)N=C(c3ccccc3)CC2(C)O1` (stereo unspecified), the TGI is above 100 µM.

`O=C1CC(C(O)CO)CC(=O)N1` (stereo unspecified) returned a TGI above 100 µM.

Compound `O=C(Cc1nc2ccc(C(=O)c3ccccc3)cc2[nH]c1=O)C(=O)Nc1ccc(Br)cc1` showed a TGI above 100 µM.

`Cc1ccccc1C1OC1C(=O)c1ccccc1N` (stereo unspecified) displayed a TGI above 100 µM.

Regarding `Cc1cc(-c2nc3ccccc3s2)ccc1NS(=O)(=O)O`, the TGI is above 100 µM.

In turn, `COc1cc(COC(=O)N[C@H](C(=O)O)C(C)(C)C)c([N+](=O)[O-])cc1OC` gave a TGI above 100 µM.

For the compound `Cc1c(/C=N\NC(=S)N2CCN(C(=S)N/N=C\c3c(C)n(C)n(-c4ccccc4)c3=O)CC2)c(=O)n(-c2ccccc2)n1C`, the TGI is above 100 µM.

The compound `CCN(CC)CCn1c2cc3c(cc2c(=O)c2cccnc21)OCCO3` gave a TGI above 10 µM.

Compound `O=C(NS(=O)(=O)Nc1ccc(Cl)cc1)OCc1ccc(Cl)cc1Cl` registered a TGI of 45.5 µM.
